The record followed here is patent US12285012B2, “Compositions comprising pyridine carboxylate herbicides with acetolactate synthase (ALS) inhibitor herbicides” (Corteva Agriscience LLC, priority 2018, dated 2025).

For data set [1], the system named is common lambsquarters (CHEAL, Chenopodium album L.). Nature of the data set: Greenhouse postemergence herbicidal effect. In kind it is in vivo. How it is done:
(§1) Seeds of the desired test plant species were planted in a 90:10% v/v (volume/volume) mixture of PRO-MIX® BX (Premier Tech Horticulture, Quakertown, PA, USA) and PROFILE® GREENS GRADE™ (Profile Products LLC, Buffalo Grove, IL, USA) planting mixture, which typically has a pH of 5.2 to 6.2 and an organic matter content of at least 50 percent, in plastic pots with a surface area of 103.2 square centimeters (cm^2). […] The plants were grown for 7-36 days (d) in a greenhouse with an approximate 14-hour (h) photo-period which was maintained at about 23° C. during the day and 22° C. during the night. Nutrients and water were added on a regular basis and supplemental lighting was provided with overhead metal halide 1000-Watt lamps as necessary. The plants were employed for testing when they reached the second or third true leaf stage.
(§2) Emulsifiable concentrates of each of each pyridine carboxylate herbicide (Compound A or Compound B) were prepared at 100 grams acid equivalent per liter (g ae/L). The emulsifiable concentrates also included a safener, cloquintocet-mexyl, at 120 grams active ingredient per liter (g ai/L), unless otherwise noted below. An aliquot of each emulsifiable concentrate was placed in a 25 mL glass vial and diluted with an aqueous mixture of 1.25% (v/v) ACTIROB® B esterified rapeseed oil (Bayer Crop Science, Research Triangle Park, NC, USA) or MSO® Concentrate with LECI-TECH® methylated soybean oil (Loveland Products, Loveland, CO, USA) to obtain concentrated stock solutions at the highest application rate for each herbicide, based upon a 12 milliliter (mL) application volume at a rate of 187 liters per hectare (L/ha). The concentrated stock solutions were further diluted with an aqueous mixture of 1.25% v/v ACTIROB® B or MSO® Concentrate with LECI-TECH® to obtain stock solutions at reduced application rates for each herbicide. Spray solutions of the herbicide combinations (Compound A or Compound B plus ALS herbicide) were prepared by adding weighed amounts or aliquots of the ALS herbicides to the stock solutions of Compound A or Compound B to form 12-mL spray solutions in two- or three-way combinations.
(§3) The spray solutions were applied to the plant material with an overhead Mandel track sprayer equipped with 8002E nozzles calibrated to deliver 187 L/ha over an application area of 0.503 square meters (m^2) at a spray height of 18 inches (43 centimeters (cm)) above the average plant canopy. Control plants were sprayed in the same manner with the solvent blank. All pyridine carboxylate herbicide (component a) application rates are given as “g ae/ha” and all ALS inhibitor (component b) application rates are given as “g ai/ha.”
(§4) The treated plants and control plants were placed in a greenhouse as described above and watered by sub-irrigation to prevent wash-off of the test compounds. After 20-22 d, the condition of the test plants as compared with that of the control plants was determined visually and scored on a scale of 0 to 100 percent where 0 corresponds to no injury and 100 corresponds to complete kill.

For data set [2], the system named is kochia (KCHSC, Kochia scoparia). Nature of the data set: Greenhouse postemergence herbicidal effect. It counts as in vivo. How it is done: as §1, §2, §3, §4
The subject of data set [3] is wild mustard (SINAR, Sinapis arvensis). Briefly: Greenhouse postemergence herbicidal effect. It counts as in vivo. As to the method:
(§5) The plants were grown for 7-36 days (d) in a greenhouse with an approximate 14-hour (h) photo-period which was maintained at about 23° C. during the day and 22° C. during the night. Nutrients and water were added on a regular basis and supplemental lighting was provided with overhead metal halide 1000-Watt lamps as necessary. The plants were employed for testing when they reached the second or third true leaf stage.
(§6) The emulsifiable concentrates also included a safener, cloquintocet-mexyl, at 120 grams active ingredient per liter (g ai/L), unless otherwise noted below.
(§7) Control plants were sprayed in the same manner with the solvent blank. All pyridine carboxylate herbicide (component a) application rates are given as “g ae/ha” and all ALS inhibitor (component b) application rates are given as “g ai/ha.”
as §4

Data set [4] has as its system wild chamomile (MATCH, Matricaria chamomilla). Nature of the data set: Greenhouse postemergence herbicidal effect. In kind it is in vivo. As to the method: as §5, §6, §7, §4
Data set [5] deals with Canadian thistle (CIRAR, Cirsium arvense). Briefly: Greenhouse postemergence herbicidal effect. In kind it is in vivo. As to the method:
as §5, §6, §7, §4

In data set [6] the test system is Russian thistle (SASKR, Salsola kali). Nature of the data set: Greenhouse postemergence herbicidal effect. It counts as in vivo. How it is done:
as §5, §6, §7, §4

For data set [7], the system named is pigweed (AMARE, Amaranthus retroflexus). Nature of the data set: Greenhouse postemergence herbicidal effect. In kind it is in vivo. How it is done:
as §5, §6, §7, §4

Data set [8] deals with wild buckwheat (POLCO, Polygonum convolvulus). Nature of the data set: Greenhouse postemergence herbicidal effect. In kind it is in vivo. The conditions noted are these: for Obs % visual injury / % visual injury, Obs: POLCO. How it is done: as §5, §6, §7, §4
The subject of data set [9] is winter rape (BRSNW, Brassica napus). Nature of the data set: Greenhouse postemergence herbicidal effect. It counts as in vivo. As to the method: as §5, §6, §7, §4
The subject of data set [10] is spring wheat (TRZAS). It counts as in vivo, Triticum aestivum. How it is done:
as §5, §6, §7, §4

Data set [11] has as its system spring barley (HORVS). It counts as in vivo, Hordeum vulgare. As to the method:
as §5, §6, §7, §4

Consider `Cc1cnc(C2=NC(C)(C(C)C)C(=O)N2)c(C(=O)O)c1` (centres unmarked) [Imazapic, imazapic], for which the “Obs % visual injury” value is 78% in data set [1] (CHEAL, Imazapic 35 g/ha); 80% in data set [2] (KCHSC, Imazapic 35 g/ha); 91% in [3] (SINAR, Imazapic 35 g/ha); 68% in [4] (MATCH, Imazapic 35 g/ha); 68% in data set [5] (CIRAR, Imazapic 35 g/ha); 35% in [6] (SASKR, Imazapic 35 g/ha). For the same compound, the “Obs % visual injury” value in [7] (AMARE, Imazapic 35 g/ha) was found to be 100%; in data set [8] (Imazapic 35 g/ha) it was 63%; in data set [9] (BRSNW, Imazapic 35 g/ha) it was 98%.

For the compound `COc1cc(OC)nc(Oc2cccc(Oc3nc(OC)cc(OC)n3)c2C(=O)O)n1` [Bispyrabac], the “% visual injury Obs” value amounted to 0% in data set [10] (Bispyrabac 20 g/ha); 13% in data set [11] (Bispyrabac 20 g/ha); 0% in data set [1] (Bispyrabac 20 g/ha); 10% in data set [2] (Bispyrabac 20 g/ha); 96% in data set [3] (Bispyrabac 20 g/ha); 23% in [4] (Bispyrabac 20 g/ha). In addition, the “% visual injury Obs” value in [5] (Bispyrabac 20 g/ha) stood at 68%; in [7] (Bispyrabac 20 g/ha) it was 100%; in [8] (Bispyrabac 20 g/ha), 96%; in data set [9] (Bispyrabac 20 g/ha), 100%.

`CCc1cnc(C2=NC(C)(C(C)C)C(=O)N2)c(C(=O)O)c1` (centres unmarked) [Imazethapyr, imazethapyr]: the figures for the “% visual injury, Obs” value in data set [1] (35 g/ha), in [4] (35 g/ha) and in data set [6] (35 g/ha) were 28%, 18% and 40%, respectively. Also, the pest or weed control at 35 g/ha in data set [2] (Bassia scoparia, post-emergence, 35 g/ha, read-out: % visual injury, Obs) is 53%; in data set [5] (Cirsium arvense, post-emergence, 35 g/ha, read-out: % visual injury, Obs), 40%.

`COc1nc(C)nc(NC(=O)NS(=O)(=O)c2ccccc2C(=O)O)n1` [Metsulfuron, metsulfuron]: the “% visual injury, Obs” value in data set [1] (CHEAL, Metsulfuron 3 g/ha) was determined as 98%; in data set [2] (KCHSC, Metsulfuron 3 g/ha), 75%; in [3] (SINAR, Metsulfuron 3 g/ha), 88%; in [4] (MATCH, Metsulfuron 3 g/ha), 96%; in data set [5] (CIRAR, Metsulfuron 3 g/ha) it was 85%; in [7] (AMARE, Metsulfuron 3 g/ha), 100%. For the same compound, the “% visual injury, Obs” value worked out at 85% in data set [8] (Metsulfuron 3 g/ha) and 90% in [9] (BRSNW, Metsulfuron 3 g/ha).

Take `COc1nn(C(=O)NS(=O)(=O)c2ccccc2OC(F)(F)F)c(=O)n1C` [Flucarbazone, flucarbazone]: the “% visual injury, Obs” value in data set [1] (CHEAL, Flurcarbazone 30 g/ha) came to 10%; in data set [3] (SINAR, Flurcarbazone 30 g/ha) it was 88%; in [4] (MATCH, Flurcarbazone 30 g/ha), 18%; in data set [7] (AMARE, Flurcarbazone 30 g/ha), 98%; in [8] (Flurcarbazone 30 g/ha), 88%; in data set [9] (BRSNW, Flurcarbazone 30 g/ha), 83%. In addition, the pest or weed control at 30 g/ha is 25% in [2] (Bassia scoparia, post-emergence, KCHSC, Flurcarbazone 30 g/ha, read-out: % visual injury, Obs) and 28% in [5] (Cirsium arvense, post-emergence, CIRAR, Flurcarbazone 30 g/ha, read-out: % visual injury, Obs).

Turning to iodosulfuron, the “% visual injury, Obs” value in data set [10] (TRZAS, Iodosulfuron 33.75 g/ha) turned out to be 0%; in data set [11] (HORVS, Iodosulfuron 33.75 g/ha), 0%; in [1] (CHEAL, Iodosulfuron 33.75 g/ha), 90%; in [2] (KCHSC, Iodosulfuron 33.75 g/ha), 70%; in data set [3] (SINAR, Iodosulfuron 33.75 g/ha), 100%; in [4] (MATCH, Iodosulfuron 33.75 g/ha), 85%. The “% visual injury, Obs” value in [5] (CIRAR, Iodosulfuron 33.75 g/ha) is on record as 85%; in data set [7] (AMARE, Iodosulfuron 33.75 g/ha) it was 98%; in data set [8] (Iodosulfuron 33.75 g/ha) it was 85%; in data set [9] (BRSNW, Iodosulfuron 33.75 g/ha), 98%.

With `COc1nc(C)nc(N(C)C(=O)NS(=O)(=O)c2ccccc2C(=O)O)n1` [Tribenuron, tribenuron], the “% visual injury, Obs” value in data set [1] (CHEAL, Tribenuron 15 g/ha) is given as 96%; in [2] (KCHSC, Tribenuron 15 g/ha) it was 50%; in data set [3] (SINAR, Tribenuron 15 g/ha), 95%; in data set [4] (MATCH, Tribenuron 15 g/ha), 87%; in data set [5] (CIRAR, Tribenuron 15 g/ha), 89%; in data set [7] (AMARE, Tribenuron 15 g/ha), 100%. In addition, the “% visual injury, Obs” value is recorded as 78% in [8] (Tribenuron 15 g/ha) and 99% in data set [9] (BRSNW, Tribenuron 15 g/ha).

For mesosulfuron, the “% visual injury, Obs” value in data set [1] (CHEAL, Mesosulfuron 9 g/ha) is on record as 48%; in data set [2] (KCHSC, Mesosulfuron 9 g/ha), 13%; in [3] (SINAR, Mesosulfuron 9 g/ha), 94%; in data set [4] (MATCH, Mesosulfuron 9 g/ha), 45%; in data set [5] (CIRAR, Mesosulfuron 9 g/ha), 73%; in data set [7] (AMARE, Mesosulfuron 9 g/ha), 100%. The “% visual injury, Obs” value was 28% in [8] (Mesosulfuron 9 g/ha) and 95% in data set [9] (BRSNW, Mesosulfuron 9 g/ha). Moreover, the “% visual injury” value in data set [1] (Mesosulfuron 3 g/ha) is listed as 30%; in data set [2] (Mesosulfuron 3 g/ha) it was 0%; in [3] (Mesosulfuron 3 g/ha) it was 98%; in [4] (Mesosulfuron 3 g/ha), 15%; in data set [5] (Mesosulfuron 3 g/ha) it was 78%; in data set [6] (Mesosulfuron 3 g/ha) it was 15%. Moreover, the “% visual injury” value in [7] (Mesosulfuron 3 g/ha) is 78%; in [8] (Mesosulfuron 3 g/ha) it was 20%; in [9] (Mesosulfuron 3 g/ha), 100%. Further, the “Obs % visual injury” value was determined as 10% in [4] (MATCH, Mesosulfuron 3 g/ha) and 3% in data set [8] (Mesosulfuron 3 g/ha).

On to `Cc1ccn2nc(S(=O)(=O)Nc3c(F)cccc3F)nc2n1` [Flumetsulam, flumetsulam], for which the “% visual injury Obs” value in [1] (Flumetsulam 4.375 g/ha) is listed as 45%; in [2] (Flumetsulam 4.375 g/ha), 5%; in [3] (Flumetsulam 4.375 g/ha), 50%; in [4] (Flumetsulam 4.375 g/ha), 83%; in [5] (Flumetsulam 4.375 g/ha), 5%; in data set [6] (Flumetsulam 4.375 g/ha) it was 0%. In addition, the “% visual injury Obs” value is given as 98% in data set [7] (Flumetsulam 4.375 g/ha), 5% in [8] (Flumetsulam 4.375 g/ha) and 40% in data set [9] (Flumetsulam 4.375 g/ha).
